The experiment addresses PRMT5 (Homo sapiens (Human), UniProt O14744). Kind of experiment: PRMT5 Chemiluminescent Assay. The settings on record: PRMT5 chemiluminescent assay kit (BPS Bioscience), histone H4 peptide substrate, eight-point dose response. Type of experiment: biochemical. Here is the method:
The PRMT5 activity is measured by using “PRMT5 Chemiluminescent Assay Kit” from BPS Bioscience, Catalog Number 52002L as per the instructions of the manufacturer. Briefly, the PRMT5 enzyme is incubated with S-adenosylmethionine in a 96-well plate precoated with histone H4 peptide substrate. Next, a highly specific antibody that recognizes methylated R3 residue of Histone H4 is added followed by a horseradkish peroxidase-labeled (HRP-labeled) secondary antibody. Detection is done by the addition of the HRP substrate to produce chemiluminescence that can be measured quantitatively.
Compounds were serially diluted 3-fold and dosed from 10 uM down to 0 uM. Compounds were tested in duplicates to generate an eight-point dose response for the calculation of their IC50s.

Broadly, the IC50 is the concentration that inhibits the measured activity by half.

Each structure is given as a SMILES string.

Sequence of PRMT5 (O14744 2-637): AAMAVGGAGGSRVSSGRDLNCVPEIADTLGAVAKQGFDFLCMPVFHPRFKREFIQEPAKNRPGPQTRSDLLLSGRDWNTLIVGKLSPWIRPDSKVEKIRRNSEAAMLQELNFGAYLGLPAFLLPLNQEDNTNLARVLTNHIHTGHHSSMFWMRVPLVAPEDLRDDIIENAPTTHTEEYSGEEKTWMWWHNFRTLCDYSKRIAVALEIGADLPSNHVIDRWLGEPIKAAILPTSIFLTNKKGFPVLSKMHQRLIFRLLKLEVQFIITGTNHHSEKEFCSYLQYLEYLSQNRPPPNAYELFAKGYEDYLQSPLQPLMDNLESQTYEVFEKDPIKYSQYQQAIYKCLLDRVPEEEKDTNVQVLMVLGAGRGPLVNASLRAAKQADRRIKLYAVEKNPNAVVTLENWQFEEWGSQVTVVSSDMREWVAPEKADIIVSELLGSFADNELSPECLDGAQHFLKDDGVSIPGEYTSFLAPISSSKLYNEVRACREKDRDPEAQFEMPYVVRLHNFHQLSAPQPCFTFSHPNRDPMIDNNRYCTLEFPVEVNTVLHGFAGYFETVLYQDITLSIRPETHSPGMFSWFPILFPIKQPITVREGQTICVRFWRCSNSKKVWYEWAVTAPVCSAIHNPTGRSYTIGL
Sequence of PRMT5 (Q9BQA1 2-342 partner): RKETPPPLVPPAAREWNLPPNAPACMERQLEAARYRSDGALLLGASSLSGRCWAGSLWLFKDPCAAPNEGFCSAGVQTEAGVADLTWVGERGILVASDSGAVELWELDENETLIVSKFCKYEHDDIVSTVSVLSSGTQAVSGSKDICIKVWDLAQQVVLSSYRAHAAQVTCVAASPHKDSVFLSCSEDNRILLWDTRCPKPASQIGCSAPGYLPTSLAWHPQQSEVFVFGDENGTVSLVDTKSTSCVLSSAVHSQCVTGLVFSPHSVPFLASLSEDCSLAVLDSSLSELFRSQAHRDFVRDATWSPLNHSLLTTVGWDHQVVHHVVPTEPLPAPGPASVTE

`COc1ccc(Cn2c(=O)c3ccccc3n(CC(O)CN3CCc4ccccc4C3)c2=O)cc1` (stereo not shown) [Compound 97, 1-[3-(3,4-dihydro-1H-isoquinolin-2-yl)-2-hydroxy-propyl]-3-[(4-methoxyphenyl)methyl]quinazoline-2,4-dione] came in with an IC50 of 9410 nM. In turn, `O=c1c2ccccc2n(CC2CC(F)(F)C2)c(=O)n1C[C@H](O)CN1CCc2ccccc2C1` [Compound 95, 1-[(3,3-difluorocyclobutyl)methyl]-3-[(2R)-3-(3,4-dihydro-1H-isoquinolin-2-yl)-2-hydroxy-propyl]quinazoline-2,4-dione] showed an IC50 of 164 nM.

`COc1ccc2[nH]c(=O)n(C[C@H](O)CN3CCc4ccccc4C3)c(=O)c2c1` [Compound 81, 3-[(2R)-3-(3,4-dihydro-1H-isoquinolin-2-yl)-2-hydroxy-propyl]-6-methoxy-1H-quinazoline-2,4-dione] yielded an IC50 of 159 nM. This IC50 and that of the compound before are within 1.5-fold of each other.

With `O=c1c2ccc(-c3cccnc3)cc2n(CC2CC2)c(=O)n1C[C@H](O)CN1CCc2ccccc2C1` [Compound 86, 1-(cyclopropylmethyl)-3-[(2R)-3-(3,4-dihydro-1H-isoquinolin-2-yl)-2-hydroxy-propyl]-7-(3-pyridyl)quinazoline-2,4-dione], the IC50 amounted to 35 nM. This IC50 lies about 4.5-fold lower than the previous one. `O=c1[nH]c2ccc(Cl)cc2c(=O)n1C[C@H](O)CN1CCc2ccccc2C1` [Compound 67, 6-chloro-3-[(2R)-3-(3,4-dihydro-1H-isoquinolin-2-yl)-2-hydroxy-propyl]-1H-quinazoline-2,4-dione] registered a half-inhibitory concentration (IC50) of 216 nM. With `CC(C)Cn1c(=O)n(CC(O)CN2CCc3ccccc3C2)c(=O)c2ccccc21` (stereo not shown) [Compound 98, 3-[3-(3,4-dihydro-1H-isoquinolin-2-yl)-2-hydroxy-propyl]-1-isobutyl-quinazoline-2,4-dione] the figure was 178 nM. Consider `O=c1[nH]c2cc(Cl)ccc2c(=O)n1C[C@H](O)CN1CCc2ccccc2C1` [Compound 68, 7-chloro-3-[(2R)-3-(3,4-dihydro-1H-isoquinolin-2-yl)-2-hydroxy-propyl]-1H-quinazoline-2,4-dione], for which half-maximal inhibition (IC50) was put at 33 nM. `CC(C)Cn1c(=O)n(C[C@H](O)CN2CCc3ccccc3C2)c(=O)c2ccc(Cl)cc21` [Compound 73, 7-chloro-3-[(2R)-3-(3,4-dihydro-1H-isoquinolin-2-yl)-2-hydroxy-propyl]-1-isobutyl-quinazoline-2,4-dione] yielded an IC50 of 14 nM. This IC50 is about 2.4-fold lower than that of the compound before. The compound `O=c1[nH]c2ccccc2c(=O)n1CC(O)CN1CCc2ccccc2C1` (stereo not shown) [Compound 61, 3-[3-(3,4-dihydro-1H-isoquinolin-2-yl)-2-hydroxy-propyl]-1H-quinazoline-2,4-dione] yielded an IC50 of 876 nM.

The compound `COCCn1c(=O)n(CC(O)CN2CCc3ccccc3C2)c(=O)c2ccccc21` (stereo not shown) [Compound 65, 3-[3-(3,4-dihydro-1H-isoquinolin-2-yl)-2-hydroxy-propyl]-1-(2-methoxyethyl)quinazoline-2,4-dione] yielded an IC50 of 518 nM. `CC(C)Cn1c(=O)n(C[C@H](O)CN2CCc3ccccc3C2)c(=O)c2cc(-c3ccc(F)cc3)ccc21` [Compound 76, 3-[(2R)-3-(3,4-dihydro-1H-isoquinolin-2-yl)-2-hydroxy-propyl]-6-(4-fluorophenyl)-1-isobutyl-quinazoline-2,4-dione]: the IC50 was 57 nM. For `O=c1c2ccccc2n(CC2CCOCC2)c(=O)n1CC(O)CN1CCc2ccccc2C1` (stereo not shown) [Compound 105, 3-[3-(3,4-dihydro-1H-isoquinolin-2-yl)-2-hydroxy-propyl]-1-(tetrahydropyran-4-ylmethyl)quinazoline-2,4-dione], the IC50 was found to be 903 nM. For `CC(C)Cn1c(=O)n(C[C@@H](O)CN2CCc3ccccc3C2)c(=O)c2ccccc21` [Compound 101, 3-[(2S)-3-(3,4-dihydro-1H-isoquinolin-2-yl)-2-hydroxy-propyl]-1-isobutyl-quinazoline-2,4-dione], half-maximal inhibition (IC50) was put at 4490 nM. The figure for `O=c1[nH]c2ccc(F)cc2c(=O)n1C[C@H](O)CN1CCc2ccccc2C1` [Compound 66, 3-[(2R)-3-(3,4-dihydro-1H-isoquinolin-2-yl)-2-hydroxy-propyl]-6-fluoro-1H-quinazoline-2,4-dione] is 176 nM; for `Cn1c(=O)n(CC(O)CN2CCc3ccccc3C2)c(=O)c2ccccc21` (stereo not shown) [Compound 63, 3-[3-(3,4-dihydro-1H-isoquinolin-2-yl)-2-hydroxy-propyl]-1-methyl-quinazoline-2,4-dione] it is 698 nM; for `O=c1c2c(F)cccc2n(CC2CC2)c(=O)n1C[C@H](O)CN1CCc2ccccc2C1` [Compound 89, 1-(cyclopropylmethyl)-3-[(2R)-3-(3,4-dihydro-1H-isoquinolin-2-yl)-2-hydroxy-propyl]-5-fluoro-quinazoline-2,4-dione] it is 41 nM. `CC(C)Cn1c(=O)n(C[C@H](O)CN2CCc3ccccc3C2)c(=O)c2cc(F)ccc21` [Compound 72, 3-[(2R)-3-(3,4-dihydro-1H-isoquinolin-2-yl)-2-hydroxy-propyl]-6-fluoro-1-isobutyl-quinazoline-2,4-dione] showed an IC50 of 70 nM. Turning to `O=c1[nH]c2ccccc2c(=O)n1C[C@@H](O)CN1CCc2ccccc2C1` [Compound 62, 3-[(2S)-3-(3,4-dihydro-1H-isoquinolin-2-yl)-2-hydroxy-propyl]-1H-quinazoline-2,4-dione], the IC50 stood at 13400 nM.

`COc1ccc2c(=O)n(C[C@H](O)CN3CCc4ccccc4C3)c(=O)n(CC3CC3)c2c1` [Compound 84, 1-(cyclopropylmethyl)-3-[(2R)-3-(3,4-dihydro-1H-isoquinolin-2-yl)-2-hydroxy-propyl]-7-methoxy-quinazoline-2,4-dione]: inhibition was half-maximal at 35 nM (IC50). Regarding `O=c1[nH]c2ccc(O)cc2c(=O)n1C[C@H](O)CN1CCc2ccccc2C1` [Compound 83, 3-[(2R)-3-(3,4-dihydro-1H-isoquinolin-2-yl)-2-hydroxy-propyl]-6-hydroxy-1H-quinazoline-2,4-dione], the concentration for half-maximal inhibition (IC50) came to 840 nM. This IC50 is about 24-fold higher than that of the compound before. The figure for `CC(C)Cn1c(=O)n(C[C@H](O)CN2CCc3ccccc3C2)c(=O)c2ccccc21` [Compound 102, 3-[(2R)-3-(3,4-dihydro-1H-isoquinolin-2-yl)-2-hydroxy-propyl]-1-isobutyl-quinazoline-2,4-dione] is 71 nM. In the case of `CC(C)Cn1c(=O)n(C[C@H](O)CN2CCc3ccccc3C2)c(=O)c2cc(Br)ccc21` [Compound 71, 6-bromo-3-[(2R)-3-(3,4-dihydro-1H-isoquinolin-2-yl)-2-hydroxy-propyl]-1-isobutyl-quinazoline-2,4-dione], the IC50 was determined as 159 nM. With `N#Cc1ccc(Cn2c(=O)n(CC(O)CN3CCc4ccccc4C3)c(=O)c3ccccc32)cc1` (stereo not shown) [Compound 100, 4-[[3-[3-(3,4-dihydro-1H-isoquinolin-2-yl)-2-hydroxy-propyl]-2,4-dioxo-quinazolin-1-yl]methyl]benzonitrile] the figure was 779 nM; with `CC(C)Cn1c(=O)n(C[C@H](O)CN2CCc3ccccc3C2)c(=O)c2cc(Cl)ccc21` [Compound 69, 6-chloro-3-[(2R)-3-(3,4-dihydro-1H-isoquinolin-2-yl)-2-hydroxy-propyl]-1-isobutyl-quinazoline-2,4-dione], 126 nM; with `O=c1c2ccccc2n(Cc2ccc(Cl)cc2)c(=O)n1C[C@H](O)CN1CCc2ccccc2C1` (stereo in doubt) [Compound 96, 1-[(4-chlorophenyl)methyl]-3-[3-(3,4-dihydro-1H-isoquinolin-2-yl)-2-hydroxy-propyl]quinazoline-2,4-dione], 1060 nM.
